Measured values reported in patent EP2633864A1, “Clip inhibitors and methods of modulating immune function” (The Regents of the University of Colorado, priority 2008, dated 2010).

Legend:
[1] = tested on: B cell surface CLIP; experiment: Effect on B cell surface CLIP (Figure 4); type: cell-based
[2] = tested on: mouse splenic B cells; experiment: TLR ligand induced ectopic CLIP on mouse splenic B cells in vitro (15G4 anti-CLIP/I-Ab versus B220); type: cell-based; settings: treatment in vitro; figure 12d
Excerpt: Mouse splenocytes or T-depleted splenocytes were red cell depleted using Geys Solution, and cells were counted. For T-depleted B cell preparations, B cells were separated by discontinuous Percoll (Pharmacia LKB Biotechnology, Piscataway, NJ) gradients (13). Those cells layering at the 1.079/1.085 g/ml interface (1.079 < ρ ≤ 1.085) are designated throughout as resting B cells. Cells layering at the BSS/1.066 g/ml interface (ρ ≤ 1.066) are designated as activated. Viable cells from this latter interface were isolated using Lympholyte-M (Cedarlane Laboratories, Ltd., Hornby, Ontario, Canada). Cells from each layer were harvested, washed, and resuspended at 10^7 cells/ml in PBS containing 5% fetal calf serum.
Total splenocytes, from either B6.129, Ii-deficient, or H2M-deficient mice were cultured with LPS for 24, 48, 72, or 96 hours as indicated. Cells were harvested and stained by two-color fluorescence using 15G4-FITC anti-mouse CLIP/I-A^b versus anti-mouse B220 PE. […]
Freshly isolated splenocytes, single cell suspensions of lymph node cells, resting (or activated) B cells, or primed B cells were isolated from B6.129, Ii-deficient, or H2M-deficient mice and cultured in 24 well plates in complete RPMI medium, with or without the appropriate Toll ligand, at 10^6 cells/ml. […] Cells were stained by two-color fluorescence using 15G4-FITC anti-mouse CLIP/I-A^b versus anti-mouse B220 PE. […]

Compound | B cell surface CLIP [1] | exogenous CLIP expression on the activated mouse B cells [2]
OC[C@H]1OC(O)C[C@@H](O)[C@@H]1O (some centres unmarked) [2-Deoxyglucose, 2-deoxyglucose] | affects B cell surface CLIP | 
CCOCc1nc2c(N)nc3ccccc3c2n1CC(C)(C)O [R848, imidazoquinoline resiquimod] |  | resulted in exogenous CLIP expression
